Where “and” joins values, the source holds several entries; their conditions need not be identical. Identical values can stand only once.
target: T1, human ALK5 (Homo sapiens, UniProt P36897); assay: ADP-GLO Kinases assay of ALK5 enzymatic activity; format: biochemical; details: purified recombinant human ALK5, TGFβ1 peptide substrate, pIC50 converted to pKi by Cheng-Prusoff, high ATP protocol (15 μM) for very potent compounds, 25° C.
T1 construct: human ALK5 (recombinant TGF β1 N-term GST-tagged, 80-end); GST (N); purchased
T1 sequence (P36897 80-503 limits assumed): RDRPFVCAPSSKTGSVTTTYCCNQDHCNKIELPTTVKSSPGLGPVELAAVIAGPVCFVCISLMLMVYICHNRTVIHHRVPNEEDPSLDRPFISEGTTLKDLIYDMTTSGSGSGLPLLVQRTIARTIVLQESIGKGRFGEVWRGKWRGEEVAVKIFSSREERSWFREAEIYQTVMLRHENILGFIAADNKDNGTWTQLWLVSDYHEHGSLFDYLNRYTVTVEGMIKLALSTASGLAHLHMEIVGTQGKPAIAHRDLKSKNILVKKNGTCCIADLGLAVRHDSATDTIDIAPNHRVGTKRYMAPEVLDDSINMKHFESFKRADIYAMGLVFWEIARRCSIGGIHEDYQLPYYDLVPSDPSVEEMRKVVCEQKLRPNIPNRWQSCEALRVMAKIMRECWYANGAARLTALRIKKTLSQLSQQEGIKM
Description: The enzymatic activity of compounds of the present invention was monitored measuring the formation of ADP using the ADP-GLO Kinases assay. Following the incubation of the purified enzyme, a substrate and ATP, the produced ADP was converted into ATP, which in turn was converted into light by Ultra-Glo Luciferase. The luminescent signal positively correlated with ADP amount and kinase activity. […] Compound and ALK5 kinase were mixed and incubated for 15 mins. […] After an incubation of 120 min, the reaction was stopped, and ADP production detected with ADP-Glo kit according to manufacturer's indications. […] After an incubation of 60 min, the kinase reaction was stopped, and ADP production detected with ADP-Glo kit according to manufacturer's indications. All reaction and incubation steps were performed at 25° C. and the assays were performed in 384-well format and validated using a selection of reference compounds tested in 11-point concentration-response curve. […] Results were expressed as pIC50 (negative logarithm of IC50) and subsequently converted to pKi (negative logarithm of […]) using the Cheng-Prusoff equation. The higher the value of pKi, the greater the inhibition of ALK5 activity.

Q: With `CN1CCN([C@H]2C[C@H](C(=O)Nc3cc(Nc4cc(-c5cc(Cl)ccc5F)nnc4N(C)C)ccn3)C2)CC1` (single isomer, unassigned) [Example 96, trans N-(4-{[6-(5-chloro-2-fluorophenyl)-3-(dimethylamino)pyridazin-4-yl]amino}pyridin-2-yl)-3-(4-methylpiperazin-1-yl)cyclobutane-1-carboxamide] as the compound, how does the Ki read?
A: ≤ 0.1 nM

Q: Which Ki does the source give for `CN1CCN(CCOc2ccc3c(Nc4cc(-c5cc(Cl)ccc5F)nnc4OCC(F)F)ccnc3c2)CC1` [Example 3, N-[6-(5-chloro-2-fluorophenyl)-3-(2,2-difluoroethoxy)pyridazin-4-yl]-7-[2-(4-methylpiperazin-1-yl)ethoxy]quinolin-4-amine] here?
A: ≤ 0.1 nM

Q: How did the Ki turn out when `Nc1cc(Nc2cc(-c3cc(Cl)ccc3F)nnc2OCCO)ccn1` [Example 43, 2-({4-[(2-aminopyridin-4-yl)amino]-6-(5-chloro-2-fluorophenyl)pyridazin-3-yl}oxy)ethan-1-ol] was run?
A: 0.398 to 3.16 nM

Q: How did the Ki turn out when `CN1CCN([C@H]2C[C@@H](C(=O)Nc3cc(Nc4cc(-c5cc(Cl)ccc5F)nnc4OC[C@H]4C[C@@](C)(O)C4)ccn3)C2)CC1` [Example 124, Cis N-(4-{[6-(5-chloro-2-fluorophenyl)-3-[(3-hydroxy-3-methylcyclobutyl)methoxy]pyridazin-4-yl]amino}pyridin-2-yl)-3-(4-methylpiperazin-1-yl)cyclobutane-1-carboxamide] was run?
A: ≤ 0.1 nM

Q: How did the Ki turn out when `CN1CCN(CCC(=O)Nc2cc(Nc3cc(-c4cc(Cl)ccc4F)nnc3OCc3cccc(O)c3)ccn2)CC1` [Example 81, N-(4-{[6-(5-chloro-2-fluorophenyl)-3-[(3-hydroxyphenyl)methoxy]pyridazin-4-yl]amino}pyridin-2-yl)-3-(4-methylpiperazin-1-yl)propanamide] was run?
A: ≤ 0.1 nM

Q: Which Ki does the source give for `CN1CCCN(CC(=O)Nc2cc(Nc3cc(-c4cc(Cl)ccc4F)nnc3N(C)CC3(C)CCOC3=O)ncn2)CC1` (single isomer, unassigned) [Example 208, N-(6-{[6-(5-chloro-2-fluorophenyl)-3-{methyl[(3-methyl-2-oxooxolan-3-yl)methyl]amino}pyridazin-4-yl]amino}pyrimidin-4-yl)-2-(4-methyl-1,4-diazepan-1-yl)acetamide] here?
A: ≤ 0.1 nM

Q: For `CN(C)CCOc1nnc(-c2cc(Cl)ccc2F)cc1Nc1ccnc(NC(=O)CCN2CCOCC2)c1` [Example 40, N-(4-{[6-(5-chloro-2-fluorophenyl)-3-[2-(dimethylamino)ethoxy]pyridazin-4-yl]amino}pyridin-2-yl)-3-(morpholin-4-yl)propanamide], which Ki is on record?
A: 0.126 to 0.316 nM and 0.398 to 3.16 nM

Q: For `CN1CCN(CCC(=O)Nc2cc(Nc3cc(-c4cc(Cl)ccc4F)nnc3OCCCS(C)(=O)=O)ccn2)CC1` [Example 7, N-(4-{[6-(5-chloro-2-fluorophenyl)-3-(3-methanesulfonylpropoxy)pyridazin-4-yl]amino}pyridin-2-yl)-3-(4-methylpiperazin-1-yl)propanamide], which Ki is on record?
A: ≤ 0.1 nM

Q: For `CN1CC2(C1)CN(CC(=O)Nc1cc(Nc3cc(-c4cc(Cl)ccc4F)nnc3SCCO)ccn1)C2` [Example 24, N-(4-{[6-(5-chloro-2-fluorophenyl)-3-[(2-hydroxyethyl)sulfanyl]pyridazin-4-yl]amino}pyridin-2-yl)-2-{6-methyl-2,6-diazaspiro[3.3]heptan-2-yl}acetamide], which Ki is on record?
A: ≤ 0.1 nM

Q: With `CN(C)CCOc1nnc(-c2cc(Cl)ccc2F)cc1Nc1ccnc(NC(=O)C2CC2)c1` [Example 38, N-(4-{[6-(5-chloro-2-fluorophenyl)-3-[2-(dimethylamino)ethoxy]pyridazin-4-yl]amino}pyridin-2-yl)cyclopropanecarboxamide] as the compound, how does the Ki read?
A: ≤ 0.1 nM

Q: With `CN1CCN([C@@H]2CC[C@@H](C(=O)Nc3cc(Nc4cc(-c5cc(Cl)ccc5F)nnc4SCCO)ccn3)C2)CC1` (single isomer, unassigned; enantiomer 1) [Example 189, Trans Enantiomer 1 N-(4-{[6-(5-chloro-2-fluorophenyl)-3-[(2-hydroxyethyl)sulfanyl]pyridazin-4-yl]amino}pyridin-2-yl)-3-(4-methylpiperazin-1-yl)cyclopentane-1-carboxamide] as the compound, how does the Ki read?
A: ≤ 0.1 nM

Q: With `C[C@@H]1CN([C@H]2C[C@@H](C(=O)Nc3cc(Nc4cc(-c5cc(Cl)ccc5F)nnc4N(C)CC4(C)CCOC4=O)ncn3)C2)C[C@H](C)N1` (single isomer, unassigned) [Example 186, N-(6-{[6-(5-chloro-2-fluorophenyl)-3-{methyl[(3-methyl-2-oxooxolan-3-yl)methyl]amino}pyridazin-4-yl]amino}pyrimidin-4-yl)-3-(3,5-dimethylpiperazin-1-yl)cyclobutane-1-carboxamide] as the compound, how does the Ki read?
A: ≤ 0.1 nM

Q: How did the Ki turn out when `CCOC(=O)C(C)(C)CN(C)c1nnc(-c2cc(Cl)ccc2F)cc1Nc1ccnc(NC(=O)CCN2CCN(C)CC2)c1` [Example 145, ethyl 3-{[6-(5-chloro-2-fluorophenyl)-4-({2-[3-(4-methylpiperazin-1-yl)propanamido]pyridin-4-yl}amino)pyridazin-3-yl](methyl)amino}-2,2-dimethylpropanoate] was run?
A: 0.126 to 0.316 nM

Q: With `CN1CCN([C@H]2C[C@@H](C(=O)Nc3cc(Nc4cc(-c5cc(Cl)ccc5F)nnc4OC4CCOC4)ccn3)C2)CC1` (single isomer, unassigned) [Example 111, N-(4-{[6-(5-chloro-2-fluorophenyl)-3-(oxolan-3-yloxy)pyridazin-4-yl]amino}pyridin-2-yl)-3-(4-methylpiperazin-1-yl)cyclobutane-1-carboxamide] as the compound, how does the Ki read?
A: ≤ 0.1 nM

Q: Which Ki does the source give for `CN1CCN(CCC(=O)Nc2cc(Nc3cc(-c4cc(Cl)ccc4F)nnc3SCCNC(=O)C3COC(=O)C3)ccn2)CC1` (racemic) [Example 205, N-(2-{[6-(5-chloro-2-fluorophenyl)-4-({2-[3-(4-methylpiperazin-1-yl)propanamido]pyridin-4-yl}amino)pyridazin-3-yl]sulfanyl}ethyl)-5-oxooxolane-3-carboxamide] here?
A: ≤ 0.1 nM

Q: For `COCC1(CN(C)c2nnc(-c3cc(Cl)ccc3F)cc2Nc2ccnc(NC(=O)CCN3CCN(C)CC3)c2)CCOC1=O` (racemic) [Example 200, N-(4-{[6-(5-chloro-2-fluorophenyl)-3-({[3-(methoxymethyl)-2-oxooxolan-3-yl]methyl}(methyl)amino)pyridazin-4-yl]amino}pyridin-2-yl)-3-(4-methylpiperazin-1-yl)propanamide], which Ki is on record?
A: ≤ 0.1 nM

Q: For `CN1CCN(CCC(=O)Nc2cc(Nc3cc(-c4cc(Cl)ccc4F)nnc3OC[C@H]3C[C@@](C)(O)C3)ccn2)CC1` [Example 123, N-(4-{[6-(5-chloro-2-fluorophenyl)-3-[(3-hydroxy-3-methylcyclobutyl)methoxy]pyridazin-4-yl]amino}pyridin-2-yl)-3-(4-methylpiperazin-1-yl)propanamide], which Ki is on record?
A: 0.126 to 0.316 nM

Q: Which Ki does the source give for `COc1nnc(-c2cc(Cl)ccc2F)cc1Nc1ccnc(NC(=O)CCN2CCN(C)CC2)c1` [Example 47, N-(4-{[6-(5-chloro-2-fluorophenyl)-3-methoxypyridazin-4-yl]amino}pyridin-2-yl)-3-(4-methylpiperazin-1-yl)propanamide] here?
A: ≤ 0.1 nM

Q: For `COC(=O)COc1nnc(-c2cc(Cl)ccc2F)cc1Nc1ccnc(NC(=O)CCN2CCN(C)CC2)c1` [Example 15, methyl 2-{[6-(5-chloro-2-fluorophenyl)-4-({2-[3-(4-methylpiperazin-1-yl)propanamido]pyridin-4-yl}amino)pyridazin-3-yl]oxy}acetate], which Ki is on record?
A: 0.126 to 0.316 nM

Q: How did the Ki turn out when `CNc1nnc(-c2cc(Cl)ccc2F)cc1Nc1ccnc(NC(=O)CCN2CCN(C)CC2)c1` [Example 29] was run?
A: ≤ 0.1 nM

From patent publication US20250011299A1, “PYRIDAZINYL AMINO DERIVATIVES AS ALK5 INHIBITORS” (CHIESI FARMACEUTICI S.P.A., priority 2021, published 2025)
